The CheMixHub ionic liquid set
Several values for one entry are separate records, joined by “and”; a condition that tells them apart may be missing. Equal entries are not always repeated. ± gives the uncertainty stated by the source.

Test: xn = mol fraction of the nth substance listed

CCCCCCCCCCCC[N+](C)(C)Cc1ccccc1.[Cl-] + O
electrical conductivity [S/m], 101 kPa
Settings | 293.15 K | 298.15 K | 303.15 K | 308.15 K | 313.15 K
x1 = 5.874e-05 | 0.0232 ± 0.0015 | 0.0261 ± 0.0016 | 0.0289 ± 0.0018 | 0.0318 ± 0.002 | 0.0349 ± 0.0022
x1 = 8e-05 | 0.0313 ± 0.002 | 0.0351 ± 0.0022 | 0.0389 ± 0.0025 | 0.0428 ± 0.0027 | 0.0469 ± 0.003
x1 = 9.982e-05 | 0.0388 ± 0.0024 | 0.0434 ± 0.0027 | 0.0481 ± 0.003 | 0.053 ± 0.0033 | 0.0579 ± 0.0037
x1 = 0.0001187 | 0.0459 ± 0.0029 | 0.0513 ± 0.0032 | 0.0569 ± 0.0036 | 0.0626 ± 0.0039 | 0.0686 ± 0.0043
x1 = 0.0001384 | 0.0531 ± 0.0033 | 0.0594 ± 0.0037 | 0.0658 ± 0.0041 | 0.0724 ± 0.0045 | 0.0792 ± 0.005
x1 = 0.0001594 | 0.0603 ± 0.0037 | 0.0673 ± 0.0042 | 0.0744 ± 0.0046 | 0.0819 ± 0.0051 | 0.0899 ± 0.0056
x1 = 0.000182 | 0.0659 ± 0.004 | 0.0734 ± 0.0045 | 0.0812 ± 0.005 | 0.0897 ± 0.0055 | 0.0989 ± 0.0061
x1 = 0.0002056 | 0.0702 ± 0.0043 | 0.0783 ± 0.0048 | 0.087 ± 0.0053 | 0.0963 ± 0.0059 | 0.106 ± 0.0065
x1 = 0.0002284 | 0.0741 ± 0.0045 | 0.0827 ± 0.005 | 0.092 ± 0.0056 | 0.102 ± 0.0062 | 0.113 ± 0.0069
x1 = 0.0002522 | 0.0778 ± 0.0047 | 0.0871 ± 0.0053 | 0.0969 ± 0.0059 | 0.108 ± 0.0066 | 0.12 ± 0.0073
x1 = 0.0002717 | 0.0809 ± 0.0049 | 0.0906 ± 0.0055 | 0.101 ± 0.0062 | 0.113 ± 0.0069 | 0.125 ± 0.0076
x1 = 0.0002895 | 0.0836 ± 0.0051 | 0.0937 ± 0.0057 | 0.105 ± 0.0064 | 0.117 ± 0.0071 | 0.13 ± 0.0079
x1 = 0.0003122 | 0.0872 ± 0.0053 | 0.0978 ± 0.006 | 0.109 ± 0.0067 | 0.122 ± 0.0075 | 0.136 ± 0.0083

CCCC[n+]1ccccc1.O=S(=O)([O-])C(F)(F)F + O
298.15 K, 101 kPa
Settings | electrical conductivity [S/m]
x1 = 0.000164 | 0.071 ± 0.02
x1 = 0.0004107 | 0.156 ± 0.02
x1 = 0.0005313 | 0.208 ± 0.02
x1 = 0.0007077 | 0.277 ± 0.02
x1 = 0.0008912 | 0.323 ± 0.02
x1 = 0.001062 | 0.395 ± 0.02
x1 = 0.001253 | 0.46 ± 0.02
x1 = 0.001353 | 0.501 ± 0.02
x1 = 0.001468 | 0.53 ± 0.02
x1 = 0.001598 | 0.586 ± 0.02
x1 = 0.001845 | 0.651 ± 0.02
x1 = 0.001955 | 0.674 ± 0.02
x1 = 0.002188 | 0.732 ± 0.02
x1 = 0.002246 | 0.746 ± 0.02
x1 = 0.002362 | 0.777 ± 0.02
x1 = 0.002429 | 0.785 ± 0.02
x1 = 0.002452 | 0.795 ± 0.02
x1 = 0.002604 | 0.836 ± 0.02
x1 = 0.002771 | 0.869 ± 0.02
x1 = 0.00288 | 0.909 ± 0.02
x1 = 0.003079 | 0.96 ± 0.02

CCCC[n+]1ccn(C)c1C.NCC(=O)[O-] + O
100 kPa
Settings | viscosity [mPa·s]
293.15 K, x1 = 0.3904 | 66 ± 13
298.15 K, x1 = 0.0999 | 13.7 ± 2.7
298.15 K, x1 = 0.1982 | 22.2 ± 4.4
298.15 K, x1 = 0.3003 | 34.6 ± 6.9
298.15 K, x1 = 0.6 | 94 ± 19
298.15 K, x1 = 0.6999 | 119 ± 24
298.15 K, x1 = 0.798 | 146 ± 30
303.15 K, x1 = 0.9001 | 125 ± 25
308.15 K, x1 = 0.0999 | 7.8 ± 1.6
308.15 K, x1 = 0.3003 | 20.2 ± 4
308.15 K, x1 = 0.3904 | 28.4 ± 5.7
308.15 K, x1 = 0.6999 | 65 ± 13
313.15 K, x1 = 0.3904 | 23.4 ± 4.7
313.15 K, x1 = 0.9001 | 71 ± 14
318.15 K, x1 = 0.6999 | 46.4 ± 9.3
318.15 K, x1 = 0.798 | 54 ± 11

CS(C)=O + COCCOCCn1cc[n+](CCC#N)c1.O=S(=O)([N-]S(=O)(=O)C(F)(F)F)C(F)(F)F
101.3 kPa, x2 = 0
Settings | electrical conductivity [S/m]
293.15 K | 0.000587 ± 1.2e-05
303.15 K | 0.000881 ± 1.8e-05
313.15 K | 0.00118 ± 2.4e-05
323.15 K | 0.00148 ± 3e-05

CCCC[NH3+].O=[N+]([O-])[O-] + O
Settings | viscosity
278.15 K, 101.33 kPa, x2 = 0.435 | 46.7 ± 1 mPa·s
283.15 K, 101.33 kPa, x2 = 0.435 | 37.92 ± 0.84 mPa·s and 48.9 ± 0.6 mPa·s
288.15 K, 101.33 kPa, x2 = 0.435 | 31.29 ± 0.69 mPa·s and 40.44 ± 0.51 mPa·s
293.15 K, 101.33 kPa, x2 = 0.435 | 26.16 ± 0.58 mPa·s and 33.68 ± 0.42 mPa·s
298 K, 101 kPa, x2 = 0 | 108.5 ± 4.4 mPa·s
298 K, 101 kPa, x2 = 0.294 | 33.93 ± 0.98 mPa·s
298 K, 101 kPa, x2 = 0.801 | 3.93 ± 0.09 mPa·s
298 K, 101 kPa, x2 = 0.9 | 2.18 ± 0.05 mPa·s
298.15 K, 101.33 kPa, x2 = 0.435 | 22.32 ± 0.49 mPa·s and 28.34 ± 0.34 mPa·s
303.15 K, 101.33 kPa, x2 = 0.435 | 18.92 ± 0.42 mPa·s and 23.98 ± 0.29 mPa·s
308.15 K, 101.33 kPa, x2 = 0.435 | 16.33 ± 0.36 mPa·s and 20.7 ± 0.2 mPa·s
313.15 K, 101.33 kPa, x2 = 0.435 | 14.22 ± 0.32 mPa·s and 17.85 ± 0.2 mPa·s
318.15 K, 101.33 kPa, x2 = 0.435 | 12.47 ± 0.28 mPa·s and 16.84 ± 0.19 mPa·s
323.15 K, 101.33 kPa, x2 = 0.435 | 11.02 ± 0.24 mPa·s and 13.73 ± 0.16 mPa·s
328.15 K, 101.33 kPa, x2 = 0.435 | 9.79 ± 0.22 mPa·s and 12.73 ± 0.15 mPa·s
333.15 K, 101.33 kPa, x2 = 0.435 | 8.76 ± 0.19 mPa·s and 10.31 ± 0.13 mPa·s
338.15 K, 101.33 kPa, x2 = 0.435 | 7.87 ± 0.17 mPa·s and 9.34 ± 0.1 mPa·s
